In US20250000849A1, “COMPOSITE COMPOSITION CONTAINING ANGIOTENSIN RECEPTOR BLOCKER AND SGLT2 INHIBITOR” (MEDITAKE CO., LTD., priority 2021, published 2025):

Legend:
Format in all cases: in vivo
Set-up in all cases: unit not given here
[1] = system: spontaneously hypertensive rat (SHR); assay: Blood pressure-lowering effect of combined administration of angiotensin receptor blocker and dapagliflozin in SHR; settings: Dapagliflozin 1 mg/kg/day
Procedure: (§1) The animals were housed in a room with a temperature of […] relative humidity of 50±10%, and a 12-hour light/dark cycle, and food and water were provided ad libitum.
(§2) All data are expressed as mean±S.E.M. Blood pressure measurements were schematized using GraphPad Prism 9 (GraphPad Software Inc., San Diego, CA).
Blood pressure was measured daily immediately before (0 hr) and 4 hours after (4 hr) dosing while administering the drug for a total of 19 days, and the recovery of blood pressure was monitored during a 1-week recovery period after the end of administration.

[2] = system: spontaneously hypertensive rat (SHR); assay: Blood pressure-lowering effect of combined administration of angiotensin receptor blocker and empagliflozin in SHR; settings: Empagliflozin 1 mg/kg/day
Procedure: as §1, §2
Blood pressure was measured daily immediately before (0 hr) and 4 hours after (4 hr) dosing while administering the drug for a total of 19 days, and the recovery of blood pressure was monitored during a 1-week recovery period after the end of administration. Specifically, the animals were divided into two groups to evaluate the blood pressure response when fimasartan (Group 1) or dapagliflozin (Group 2) was administered alone, and to evaluate the blood pressure response to the addition of the other drugs in sequentially increasing doses, and the results are shown in FIG. 2.
The experiments were conducted in the same manner as in Example 3 above, but using empagliflozin as an SGLT2 inhibitor.
The angiotensin receptor blockers, fimasartan, azilsartan, and olmesartan were divided by dose, and each administered alone or in combination with empagliflozin, and the results of blood pressure measurements in each experimental group are shown in Table 4 and FIGS. 7 to 9 below.

[3] = system: spontaneously hypertensive rat (SHR); assay: as above; settings: Empagliflozin 1 mg/kg/day, Day 14 (4 h)

Row | Compound | Blood pressure, Mean ([1]; Day 1 (pre-dose)) | Blood pressure, Mean ([1]; Day 7 (4 h)) | Blood pressure, Mean ([1]; Day 14 (4 h)) | Blood pressure, Mean ([1]; Recovery) | Blood pressure, Mean ([2]; Day 1 (pre-dose)) | Blood pressure, Mean ([2]; Day 7 (4 h)) | Blood pressure, Mean ([2]; Recovery) | Blood pressure, Mean [3]
1 | CCOc1ccc(Cc2cc([C@@H]3O[C@H](CO)[C@@H](O)[C@H](O)[C@H]3O)ccc2Cl)cc1 [Dapagliflozin, dapagliflozin] | 100.0 | 101.2 | 96.5 | 105.5 |  |  |  | 
2 | OC[C@H]1O[C@@H](c2ccc(Cl)c(Cc3ccc(O[C@H]4CCOC4)cc3)c2)[C@H](O)[C@@H](O)[C@@H]1O [Empagliflozin, empagliflozin] |  |  |  |  | 100.0 | 97.1 | 101.8 | 96.4
